# Read-outs that look alike come from different tables or passages of the source.
# Molecular target: PHGDH (Homo sapiens (Human), UniProt O43175)
# Assay: 3-Phosphoglycerate Dehydrogenase (PHGDH) Fluorescence Intensity Assay, run at two NAD/3-PG ratios: PHGDH_HIGH_NAD/3-PG (250 μM NAD/500 μM 3-PG) and PHGDH_500_NAD/3-PG (500 μM NAD/500 μM 3-PG)
# Type: biochemical
# [1] = 250 μM NAD/500 μM 3-PG, read-out: IC50 (PHGDH_HIGH_NAD/3-PG)
# [2] = 500 μM NAD/500 μM 3-PG, read-out: IC50 (PHGDH_500_NAD/3-PG)
# PHGDH, sequence (O43175 2-533 limits assumed): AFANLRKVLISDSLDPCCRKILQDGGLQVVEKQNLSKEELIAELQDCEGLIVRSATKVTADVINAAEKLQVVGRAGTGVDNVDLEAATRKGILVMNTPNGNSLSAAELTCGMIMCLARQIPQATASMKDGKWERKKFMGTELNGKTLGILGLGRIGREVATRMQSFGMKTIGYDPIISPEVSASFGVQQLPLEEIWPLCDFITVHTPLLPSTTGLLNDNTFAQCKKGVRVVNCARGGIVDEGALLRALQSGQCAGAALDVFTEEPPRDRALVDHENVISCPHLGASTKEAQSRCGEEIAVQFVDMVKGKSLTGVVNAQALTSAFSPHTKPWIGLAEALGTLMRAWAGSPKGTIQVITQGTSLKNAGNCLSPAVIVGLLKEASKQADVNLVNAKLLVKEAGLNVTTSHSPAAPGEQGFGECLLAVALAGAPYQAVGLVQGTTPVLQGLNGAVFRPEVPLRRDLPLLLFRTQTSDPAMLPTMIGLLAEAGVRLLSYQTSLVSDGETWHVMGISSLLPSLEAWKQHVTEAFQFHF
SMILES,IC50 [1] [nM],IC50 [2] [nM]
"Cc1cc(Cl)c2cc(C(=O)N[C@H](C)c3ccc(S(=O)(=O)CC(=O)O)cc3)n(C)c2c1C [Example 03-003, 2-{4-[(1R)-1-[(4-chloro-1,6,7-trimethyl-1H-indol-2-yl)formamido]ethyl]benzenesulfonyl}acetic acid]",13,22
"C[C@@H](NC(=O)c1cc2c(Cl)cc(-c3cnn(C)c3)cc2n1C)c1ccc(S(=O)(=O)CC(=O)O)cc1 [Example 03-004, 2-{4-[(1R)-1-{[4-chloro-1-methyl-6-(1-methyl-1H-pyrazol-4-yl)-1H-indol-2-yl]formamido}ethyl]benzenesulfonyl}acetic acid]",20,29
"C#Cc1cc(Cl)c2cc(C(=O)NC(C)c3ccc(S(=O)(=O)CC(=O)O)cc3)n(C)c2c1 (stereo not shown) [Example 03-007, 2-(4-{1-[(4-chloro-6-ethynyl-1-methyl-1H-indol-2-yl)formamido]ethyl}benzenesulfonyl)acetic acid]",29,–
"CC(NC(=O)c1cc2c(Cl)cc(I)cc2n1C)c1ccc(S(=O)(=O)CC(=O)O)cc1 (stereo not shown) [Example 03-008, 2-(4-{1-[(4-chloro-6-iodo-1-methyl-1H-indol-2-yl)formamido]ethyl}benzenesulfonyl)acetic acid]",24,–
"Cc1nc2c(cc(C(=O)N[C@H](C)c3ccc(S(=O)(=O)CC(=O)O)cc3)n2C)c(Cl)c1Cl [Example 03-010, 2-{4-[(1R)-1-({4,5-dichloro-1,6-dimethyl-1H-pyrrolo[2,3-b]pyridin-2-yl}formamido)ethyl]benzenesulfonyl}acetic acid]",170,–
"Cc1cc2c(cc(C(=O)N[C@H](CO)c3ccc(S(=O)(=O)CC(=O)O)cc3)n2C)c(F)c1F [Example 03-012, 2-{4-[(1S)-1-[(4,5-difluoro-1,6-dimethyl-1H-indol-2-yl)formamido]-2-hydroxyethyl]benzenesulfonyl}acetic acid]",8,17
"Cc1cc(Cl)c2cc(C(=O)N[C@H](CO)c3ccc(S(=O)(=O)CC(=O)O)cc3)n(C)c2n1 [Example 03-013, 2-{4-[(1S)-1-({4-chloro-1,6-dimethyl-1H-pyrrolo[2,3-b]pyridin-2-yl}formamido)-2-hydroxyethyl]benzenesulfonyl}acetic acid]",35,–
"Cc1cc2c(cc(C(=O)N[C@H](C)c3ccc(S(=O)(=O)CC(=O)O)cc3)n2C)c(Cl)c1F [Example 03-014, 2-{4-[(1R)-1-[(4-chloro-5-fluoro-1,6-dimethyl-1H-indol-2-yl)formamido]ethyl]benzenesulfonyl}acetic acid]",5,7
"Cc1cc(Cl)c2cc(C(=O)N[C@H](C)c3ccc(S(=O)(=O)CC(=O)O)cc3)n(C)c2n1 [Example 03-015, 2-{4-[(1R)-1-({4-chloro-1,6-dimethyl-1H-pyrrolo[2,3-b]pyridin-2-yl}formamido)ethyl]benzenesulfonyl}acetic acid]",41,–
"Cc1cc2c(cc(C(=O)N[C@H](CO)c3ccc(S(=O)(=O)CC(=O)O)cc3)n2C)c(Cl)c1F [Example 03-016, 2-{4-[(1S)-1-[(4-chloro-5-fluoro-1,6-dimethyl-1H-indol-2-yl)formamido]-2-hydroxyethyl]benzenesulfonyl}acetic acid]",5,7
"CN1CCN(c2cc(Cl)c3cc(C(=O)N[C@H](CO)c4ccc(S(=O)(=O)CC(=O)O)cc4)n(C)c3c2)CC1 [Example 03-017, 2-{4-[(1S)-1-{[4-chloro-1-methyl-6-(4-methylpiperazin-1-yl)-1H-indol-2-yl]formamido}-2-hydroxyethyl]benzenesulfonyl}acetic acid]",40,146
"C[C@@H](NC(=O)c1cc2c(Cl)cc(N3CCN(C)CC3)cc2n1C)c1ccc(S(=O)(=O)CC(=O)O)cc1 [Example 03-018, 2-{4-[(1R)-1-{[4-chloro-1-methyl-6-(4-methylpiperazin-1-yl)-1H-indol-2-yl]formamido}ethyl]benzenesulfonyl}acetic acid]",84,292
